Consider seven compounds from patent US20020136785A1, “Ginseng berry extracts and pharmaceutical compositions from ginseng berry for the treatment of type 2 diabetes and obesity” (priority 2000, published 2002).

The test system of one data set is C57BL/6J ob/ob mice. Briefly: Fasting blood glucose level in ob/ob mice. The note with it: 20 mg/kg daily IP. It counts as in vivo. The text has this: (§1) Male C57BL/6J ob/ob mice and their lean littermates (+/?) were obtained from Jackson Laboratory (Bar Harbor, Me.). In this obese, insulin-resistant mouse model, obesity is due to a mutation in the obese gene that encodes for leptin. […] The heterozygous mice are lean and normoglycemic. It is believed that the development of hyperglycemia in the ob/ob mouse is a consequence of epistatic interaction of the obesity mutation with diabetes-susceptibility genes. Adult animals at 10-18 weeks of age were used. Mice were housed in environmentally controlled conditions with a 12-h light/dark cycle and had free access to standard rodent pellet food, except when fasted before some experiments.
(§2) Animals were treated with Panax ginseng berry extract, Panax quinquefolius berry extract, ginsenoside Re or a polysaccharides fraction from Panax quinquefolius and the fasting blood glucose levels were measured. Fasting blood glucose levels were measured after animals were fasted for 4 hr (starting from 9:00AM), on Day 0 (before treatment), Day 5 (during treatment), and Day 12 (last day of treatment). Blood glucose levels were determined in tail blood samples at 1:00PM using a Glucose Analyzer (Hemocue AB, Angelholm, Sweden).

For data set [1], the system named is lean littermates (+/?) of C57BL/6J ob/ob mice. Briefly: Fasting blood glucose level in lean littermates of ob/ob mice. In kind it is in vivo. The following applies: after treatment with ginsenoside Re.
Text: as §1, §2

The subject of a further data set is ob/ob mice. Put plainly: Intraperitoneal glucose tolerance test (IPGTT) in ob/ob mice. It counts as in vivo. The following applies: 20 mg/kg, 12 days, compared to vehicle-treated ob/ob mice. Here is the method: (§3) Animals were treated with Panax ginseng berry extract, Panax quinquefolius berry extract, ginsenoside Re, or a polysaccharide fraction from Panax quinquefolius . IPGTT was performed on Day 0 and Day 12. On the days of the test, animals were fasted for 4 hr (starting from 9:00AM) followed by an IP administration of glucose (2 g/kg). Blood glucose levels were determined in tail blood samples at 0 (prior to glucose administration), and 30, 60 and 120 min after glucose administration.

The subject of another data set is lean mice. Briefly: Intraperitoneal glucose tolerance test (IPGTT) in lean mice. It counts as in vivo. The note with it: 20 mg/kg, 12 days. The protocol:
as §3

A short description of data set [2]: Body weight of ob/ob mice. It counts as in vivo. The protocol:
The average body weight of adult ob/ob or db/db mice is almost twice that of their lean littermates. Animals were treated with Panax ginseng berry extract, Panax quinquefolius berry extract, ginsenoside Re, or a polysaccharide fraction from Panax quinquefolius and the body weights were determined.

For data set [3] the following is noted: Odani et al., 1983; cited from earlier work.
The conditions of data set [4]: Karikura et al., 1991; cited from earlier work.
Data set [5] has as its target T1, nuclear glucocorticoid receptor (Homo sapiens, UniProt P04150).
T1 sequence (P04150 1-777): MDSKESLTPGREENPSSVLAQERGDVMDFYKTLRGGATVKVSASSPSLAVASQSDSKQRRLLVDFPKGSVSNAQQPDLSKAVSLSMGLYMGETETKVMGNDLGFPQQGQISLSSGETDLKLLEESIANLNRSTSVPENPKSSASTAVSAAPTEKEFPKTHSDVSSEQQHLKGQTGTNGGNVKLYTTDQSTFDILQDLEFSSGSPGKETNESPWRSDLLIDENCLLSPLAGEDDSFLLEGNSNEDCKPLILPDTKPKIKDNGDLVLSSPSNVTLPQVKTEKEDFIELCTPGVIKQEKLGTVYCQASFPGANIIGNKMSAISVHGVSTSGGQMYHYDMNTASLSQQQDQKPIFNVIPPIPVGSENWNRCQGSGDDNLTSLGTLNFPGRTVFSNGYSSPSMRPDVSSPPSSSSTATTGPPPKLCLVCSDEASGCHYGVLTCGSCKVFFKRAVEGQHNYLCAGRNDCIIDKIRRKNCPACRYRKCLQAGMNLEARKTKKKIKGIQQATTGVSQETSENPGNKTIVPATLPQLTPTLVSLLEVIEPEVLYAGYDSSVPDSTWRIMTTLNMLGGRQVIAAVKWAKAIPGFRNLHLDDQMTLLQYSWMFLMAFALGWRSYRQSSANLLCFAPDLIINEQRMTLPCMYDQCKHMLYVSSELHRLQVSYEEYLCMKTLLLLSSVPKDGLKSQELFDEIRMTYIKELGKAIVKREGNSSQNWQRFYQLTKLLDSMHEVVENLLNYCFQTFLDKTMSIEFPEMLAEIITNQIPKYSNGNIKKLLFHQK
The note with it: Lee et al., 1997; Chung et al., 1998; cited from earlier work.

Data set [6] has as its system cultured bovine adrenal chromaffin cells. The following applies: cultured bovine adrenal chromaffin cells (Kudo et al., 1998); cited from earlier work.
Data set [7] concerns streptozotocin-induced diabetic rats. The following applies: streptozotocin-induced diabetic rats (Yokozawa et al., 1985); cited from earlier work.
The subject of data set [8] is hepatic tissue of streptozotocin-induced diabetic rats. The note with it: streptozotocin-induced diabetic rats (Yokozawa et al., 1991); cited from earlier work.
The next data set deals with albumin mRNA. The following applies: streptozotocin-induced diabetic rats (Yokozawa et al., 1996); cited from earlier work.
The test system of another data set is B16-BL6 melanoma cells. The following applies: B16-BL6 melanoma cells (Wakabayashi et al., 1998); cited from earlier work.
For data set [9] the following is noted: Hasegawa et al., 1995; cited from earlier work.

Molecules are shown by their SMILES.

Take `CC(C)=CCC[C@](C)(O[C@@H]1O[C@H](CO)[C@@H](O)[C@H](O)[C@H]1O)[C@H]1CC[C@]2(C)[C@@H]1[C@H](O)C[C@@H]1[C@@]3(C)CC[C@H](O)C(C)(C)[C@@H]3[C@@H](O[C@@H]3O[C@H](CO)[C@@H](O)[C@H](O)[C@H]3O[C@@H]3O[C@@H](C)[C@H](O)[C@@H](O)[C@H]3O)C[C@]12C` [ginsenoside Re]: the fasting blood glucose with C57BL/6J ob/ob mice (Day 5, 4 hr fast) was determined as 188 ± 9.2 mg/dL; with C57BL/6J ob/ob mice (Day 12, 4 hr fast) it was 180 ± 10.8 mg/dL. Further, the “change of fasting blood glucose” value in data set [1] is on record as “did not change sizably”. Moreover, the “blood glucose levels at 60 min and 120 min following glucose administration, IPGTT” value in the data set with ob/ob mice is “significantly decreased”. In the data set on lean mice, the “glucose tolerance, IPGTT” value was “not statistically affected”. Moreover, the body weight came out at 53.1 ± 1.4 g in [2] (20 mg/kg group, Day 0); 52.9 ± 1.5 g in data set [2] (20 mg/kg, Day 5); 54.7 ± 1.7 g in [2] (20 mg/kg, Day 12).
As for `CC(C)=CCC[C@](C)(O[C@@H]1O[C@H](CO[C@@H]2O[C@H](CO)[C@@H](O)[C@H](O)[C@H]2O)[C@@H](O)[C@H](O)[C@H]1O)[C@H]1CC[C@]2(C)[C@@H]1[C@H](O)C[C@@H]1[C@@]3(C)CC[C@H](O[C@@H]4O[C@H](CO)[C@@H](O)[C@H](O)[C@H]4O[C@@H]4O[C@H](CO)[C@@H](O)[C@H](O)[C@H]4O)C(C)(C)[C@@H]3CC[C@]12C` [Rb1], the absorption after ingestion entry in [3] is reported as “poorly absorbed”. The “metabolism by intestinal flora” value in data set [4] is listed as “hydrolyzed to compound K”.
With `CC(C)=CCC[C@](C)(O[C@@H]1O[C@H](CO)[C@@H](O)[C@H](O)[C@H]1O)[C@H]1CC[C@]2(C)[C@@H]1[C@H](O)C[C@@H]1[C@@]3(C)CC[C@H](O)C(C)(C)[C@@H]3[C@@H](O[C@@H]3O[C@H](CO)[C@@H](O)[C@H](O)[C@H]3O)C[C@]12C` [Rg1], the “ligand of the nuclear glucocorticoid receptor” value in [5] was “functional ligand”. Also, the absorption after ingestion entry in data set [3] was “poorly absorbed”.
Turning to `CC(C)=CCCC(C)(O)C1CCC2(C)C1C(O)CC1C3(C)CCC(O)C(C)(C)C3C(OC3OC(CO)C(O)C(O)C3OC3OC(C)C(O)C(O)C3O)CC12C` [20(S) ginsenoside Rg2], in data set [6], the “acetylcholine-evoked secretion of catecholamines” value was “inhibit” and the “inhibitory effect compared with the other C-20 isomer” value was “greater inhibitory effect”.
As for `CC(C)=CCC[C@](C)(O[C@@H]1O[C@H](CO[C@@H]2OC[C@H](O)[C@H](O)[C@H]2O)[C@@H](O)[C@H](O)[C@H]1O)[C@H]1CC[C@]2(C)[C@@H]1[C@H](O)C[C@@H]1[C@@]3(C)CC[C@H](O[C@@H]4O[C@H](CO)[C@@H](O)[C@H](O)[C@H]4O[C@@H]4O[C@H](CO)[C@@H](O)[C@H](O)[C@H]4O)C(C)(C)[C@@H]3CC[C@]12C` [ginsenoside Rb2], the blood glucose levels result in data set [7] is listed as “significant decrease”. For the same compound, in data set [8], the “ATP levels in hepatic tissue” value is listed as “increased ATP levels”. The “albumin mRNA in the liver” value in the data set with albumin mRNA is recorded as “increased albumin mRNA”.
For the compound `CC(C)=CCC[C@@](C)(O)[C@H]1CC[C@]2(C)[C@@H]1[C@H](O)C[C@@H]1[C@@]3(C)CC[C@H](O)C(C)(C)[C@@H]3[C@@H](O[C@@H]3O[C@H](CO)[C@@H](O)[C@H](O)[C@H]3O[C@@H]3O[C@@H](C)[C@H](O)[C@@H](O)[C@H]3O)C[C@]12C` [20(R) ginsenoside Rg2], the “acetylcholine-evoked secretion of catecholamines” value in data set [6] was “inhibit”.
`CC(C)=CCC[C@](C)(O[C@@H]1O[C@H](CO)[C@@H](O)[C@H](O)[C@H]1O)[C@H]1CC[C@]2(C)[C@@H]1[C@H](O)C[C@@H]1[C@@]3(C)CC[C@H](O)C(C)(C)[C@@H]3CC[C@]12C` [compound K]: the apoptosis entry with B16-BL6 melanoma cells is “induce apoptosis”. Further, the “cytotoxicity of antineoplastic drugs” value in [9] was “increase the cytotoxicity”.
